Tests used:
[1] = Measurement of Liposomal pKa of LNP (TNS fluorescence); type: physicochemical; conditions: LNP without nucleic acid, cationic lipid:DOPC:Chol=52.5:7.5:40 + about 1.5 mol DMG-PEG2k; pH at which relative TNS fluorescence intensity was 50%
How it was run: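 Nucleic-acid-free LNPs (cationic lipid:DOPC:Chol 52.5:7.5:40, ~1.5 mol DMG-PEG2k) prepared by microfluidic mixing, diluted to 0.5 mM lipid, mixed with TNS in 150 mM NaCl buffers spanning pH 3.0–10.0. Fluorescence at ex 321/em 447 nm normalised 0–100% per LNP; pKa is the pH at 50%.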

[2] = Particle size, PdI and zeta potential of mRNA-encapsulating LNPs (dynamic light scattering); type: physicochemical; conditions: mRNA-encapsulating LNP, cationic lipid:DOPC:Chol=55:5:40 + about 1 mol DMG-PEG2k; for PdI / particle size: dynamic light scattering; for zeta potential: physiological pH
How it was run: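 LNPs were made from cationic lipid:DOPC:Chol at 55:5:40 molar ratio plus about 1 mol DMG-PEG2k, microfluidically mixed with mRNA in malate buffer (20 mM, pH 3.0, 30 mM NaCl). They were ultrafiltered into PBS at 2 mM lipid. Size, PdI and zeta potential were measured by dynamic light scattering.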

HeLa cells = assay: Evaluation of in vitro gene expression in HeLa cell (luciferase mRNA-encapsulating LNP); type: cell-based, human; conditions: for cumulative luciferase luminescence intensity over 24 hr: luciferase mRNA 0.4 μg per dish, LNP cationic lipid:DOPC:Chol:DMG-PEG2k=55:5:40:1; for gene expression activity compared to Comparative Example: result in words
How it was run: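 LNP (cationic lipid:DOPC:Chol:DMG-PEG2k=55:5:40:1) carrying luciferase mRNA, 0.4 μg mRNA per 3.5 cm dish, added to HeLa cells in D-MEM with 0.1 mM D-luciferin. Luminescence read 2 min every hour in an incubator luminometer; value is cumulative luminescence over 24 hr.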

BALB/c mouse = assay: Evaluation of in vivo gene expression (luciferase mRNA-encapsulating LNP, IVIS of isolated organs); conditions: for relative value based on Comparative Example (amount of luminescence in spleen): relative to O-Ph-P4C2 LNP = 1.00; for amount of luminescence in each organ: heart / amount of luminescence in each organ: kidney / amount of luminescence in each organ: liver / amount of luminescence in each organ: lung / amount of luminescence in each organ: spleen: tail vein, mRNA 0.05 mg/kg, 4.5 hr + 15 min after administration; for amount of luminescence in each organ: spleen: spleen (Table 7); for gene expression activity in the spleen compared to Comparative Example: result in words
How it was run: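 Luciferase mRNA in LNP (cationic lipid:DOPC:Chol:DMG-PEG2k = 55:5:40:1 molar) given by tail vein to male 5-week-old BALB/c mice at 0.05 mg mRNA/kg. At 4.5 hr, D-luciferin (3 mg/mouse) was given intraperitoneally; 15 min later liver, spleen, kidney, heart and lung were excised and luminescence (photons/sec) quantified by IVIS imaging.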

Row | pKa [1] | PdI [2] | particle size [2] [nm] | zeta potential [2] [mV] | SMILES | cumulative luciferase luminescence intensity over 24 hr (HeLa cells) [RLU] | gene expression activity compared to Comparative Example (HeLa cells) | relative value based on Comparative Example (amount of luminescence in spleen) (BALB/c mouse) | amount of luminescence in each organ: heart (BALB/c mouse) [photons/sec] | amount of luminescence in each organ: kidney (BALB/c mouse) [photons/sec] | amount of luminescence in each organ: liver (BALB/c mouse) [photons/sec] | amount of luminescence in each organ: lung (BALB/c mouse) [photons/sec] | amount of luminescence in each organ: spleen (BALB/c mouse) [photons/sec] | gene expression activity in the spleen compared to Comparative Example (BALB/c mouse)
1 | 7.6 | 0.072 | 59 | 4.1 | CCCCCCCCCCCCCC(=O)OCC(C)(COC(=O)CCCCCCCCCCCCC)C(=O)Oc1ccc(CC(=O)OCCSSCCOC(=O)NCCN(CC)CC)cc1 [Example 31] | 1.58E+08 | superior gene expression activity | 1.74 | 7.26E+05 | 5.53E+05 | 2.62E+07 | 9.16E+05 | 1.88E+07 | superior gene expression activity
2 | 7.2 | 0.060 | 63 | 0.4 | CCCCCCCC/C=C\CCCCCCCC(=O)OCC(C)(COC(=O)CCCCCCC/C=C\CCCCCCCC)C(=O)Oc1ccc(CC(=O)OCCSSCCOC(=O)NCCN(CC)CC)cc1 [Example 34] | 1.08E+08 | superior gene expression activity | 1.27 | 6.83E+05 | 5.04E+05 | 2.52E+07 | 6.02E+05 | 1.37E+07 | superior gene expression activity
3 | 6.8 | 0.068 | 70 | −4.0 | CCCCC/C=C\C/C=C\CCCCCCCC(=O)OCC(C)(COC(=O)CCCCCCC/C=C\C/C=C\CCCCC)C(=O)Oc1ccc(CC(=O)OCCSSCCOC(=O)NCCN(CC)CC)cc1 [Example 35] | 6.34E+07 | superior gene expression activity | 0.37 | 6.31E+05 | 3.94E+05 | 1.35E+07 | 4.65E+05 | 4.03E+06 | 
4 | 7.3 | 0.090 | 92 | −2.5 | CCCCCCCC/C=C\CCCCCCCC(=O)OCC(C)(COC(=O)CCCCCCC/C=C\CCCCCCCC)C(=O)Oc1ccc(CC(=O)OCCSSCCOC(=O)NCCN(C)CCO)cc1 [Example 36] | 7.66E+07 | superior gene expression activity | 0.19 | 9.67E+05 | 6.33E+05 | 2.33E+06 | 8.67E+05 | 2.00E+06 | 

The next lines start with the molecule.

Row | SMILES | pKa [1] | PdI [2] | particle size [2] [nm] | zeta potential [2] [mV] | cumulative luciferase luminescence intensity over 24 hr (HeLa cells) [RLU] | gene expression activity compared to Comparative Example (HeLa cells) | relative value based on Comparative Example (amount of luminescence in spleen) (BALB/c mouse) | amount of luminescence in each organ: heart (BALB/c mouse) [photons/sec] | amount of luminescence in each organ: kidney (BALB/c mouse) [photons/sec] | amount of luminescence in each organ: liver (BALB/c mouse) [photons/sec] | amount of luminescence in each organ: lung (BALB/c mouse) [photons/sec] | amount of luminescence in each organ: spleen (BALB/c mouse) [photons/sec] | gene expression activity in the spleen compared to Comparative Example (BALB/c mouse)
5 | CCCCCCCCCCCCCCCCC(CCCCCCCCCCCCCCCC)C(=O)Oc1ccc(CC(=O)OCCSSCCOC(=O)N(C)CCCN(C)C)cc1 [Example 24] | 8.2 | 0.109 | 96 | 12.2 | 6.22E+07 | superior gene expression activity | 0.05 | 4.78E+05 | 4.84E+05 | 5.08E+05 | 5.58E+05 | 5.09E+05 | 
6 | CCCCCCCCCCCCCCCCC(CCCCCCCCCCCCCCCC)C(=O)Oc1ccc(CC(=O)OCCSSCCOC(=O)NCCCCN(C)C)cc1 [Example 25] | 8.6 | 0.126 | 78 | 14.7 | 1.25E+07 | superior gene expression activity | 0.03 | 4.74E+05 | 3.63E+05 | 1.67E+05 | 2.74E+05 | 3.07E+05 | 
7 | CCCCCCCCCCCCCCCCC(CCCCCCCCCCCCCCCC)C(=O)Oc1ccc(CC(=O)OCCSSCCOC(=O)NCCN(C(C)C)C(C)C)cc1 [Example 28] | 6.7 | 0.070 | 66 | −1.4 | 4.57E+07 | superior gene expression activity | 0.16 | 6.88E+05 | 6.48E+05 | 9.90E+07 | 9.12E+05 | 1.68E+06 | 
8 | CCCCCCCCCCCCCCCCC(CCCCCCCCCCCCCCCC)C(=O)Oc1ccc(CC(=O)OCCSSCCOC(=O)N(C)CCN(CC)CC)cc1 [Example 29] | 6.7 | 0.080 | 59 | 1.2 | 1.75E+07 | superior gene expression activity | 0.29 | 7.27E+05 | 6.29E+05 | 8.05E+07 | 7.49E+05 | 3.16E+06 | 
9 | CCCCCCCCCCCCCCCCC(CCCCCCCCCCCCCCCC)C(=O)Oc1ccc(CC(=O)OCCSSCCOC(=O)OCCN(C)C)cc1 [Example 30] | 6.4 | 0.080 | 59 | 2.3 | 1.35E+07 | superior gene expression activity | 0.12 | 6.17E+05 | 3.80E+05 | 1.98E+07 | 5.26E+05 | 1.24E+06 | 

Source: US20250213478A1, “CATIONIC LIPID HAVING DISULFIDE BOND, LIPID MEMBRANE STRUCTURE INCLUDING SAME, NUCLEIC ACID INTRODUCTION AGENT AND PHARMACEUTICAL COMPOSITION CONTAINING ANY ONE OF SAME, METHOD FOR INTRODUCING NUCLEIC ACID INTO CELL OR TARGET CELL, AND METHOD FOR PRODUCING CELLULAR PHARMACEUTICAL” (NOF Corporation, priority 2022, published 2025)
